Values after ≈ are worked out from the molar mass of the structure shown.
How the values were obtained:
[1] = biological target: histone deacetylase (HeLa nuclear extracts); assay: In vitro assay for inhibition of histone deacetylase (HDAC Fluorescent Activity Assay, Fluor de Lys); type: biochemical; details: Fluor de Lys substrate
Excerpt: The in vitro assay for inhibition of histone deacetylase (see example C.1) measures the inhibition of HDAC enzymatic activity obtained with the compounds of formula (I).
The HDAC Fluorescent Activity Assay/Drug Discovery Kit of Biomol (cat.No: AK-500-0001) was used. The HDAC Fluorescent Activity Assay is based on the Fluor de Lys (Fluorogenic […] deAcetylase Lysyl) substrate and developer combination. The Fluor de Lys substrate, comprises an acetylated lysine side chain. Deacetylation of the substrate sensitizes the substrate so that, in the second step, treatment with the Fluor de Lys developer produces a fluorophore.
After 30 min, 1 volume of the developer was added. […] For each experiment, controls (containing HeLa nuclear extract and buffer), a blank incubation (containing buffer but no HeLa nuclear extract) and samples (containing compound dissolved in DMSO and further diluted in buffer and HeLa nuclear extract) were run in parallel. […] All sample were tested 4 times. In each test the blank value was substracted from both the control and the sample values. The control sample represented 100% of substrate deactylation. For each sample the fluorescence was expressed as a percentage of the mean value of the controls. […] Herein the effects of test compounds are expressed as pIC50 (the negative log value of the IC50-value) (see Table F-3).

[2] = test system: A2780 ovarian carcinoma cells; assay: Antiproliferative activity on A2780 cells (MTT); type: cell-based, human; details: four days of incubation; for IC50: Homo sapiens, A2780, 96 h, read-out: Cellular activity pIC50 C.2. (converted)
Method: Cellular activity of the compounds of formula (I) was determined on A2780 tumour cells using a […] assay for cell toxicity or survival (Mosmann Tim, Journal of Immunological Methods 65: 55-63, 1983)(see example C.2).
All compounds tested were dissolved in DMSO and further dilutions were made in culture medium. Final DMSO concentrations never exceeded 0.1% (v/v) in cell proliferation assays. Controls contained A2780 cells and DMSO without compound and blanks contained DMSO but no cells. MTT was dissolved at 5 mg/ml in PBS. A glycine buffer comprised of 0.1 M glycine and 0.1 M NaCl buffered to pH 10.5 with NaOH (1 N) was prepared (all reagents were from Merck).
The human A2780 ovarian carcinoma cells (a kind gift from Dr. T. C. Hamilton [Fox Chase Cancer Centre, Pennsylvania, USA]) were cultured in RPMI 1640 medium supplemented with 2 mM L-glutamine, 50 μg/ml gentamicin and 10% fetal calf serum.
Cells were routinely kept as monolayer cultures at 37° C. in a humidified 5% CO2 atmosphere. Cells were passaged once a week using a trypsin/EDTA solution at a split ratio of 1:40. All media and supplements were obtained from Life Technologies. Cells were free of mycoplasma contamination as determined using the Gen-Probe Mycoplasma Tissue Culture kit (supplier: BioMérieux).
Cells were seeded in NUNC™ 96-well culture plates (Supplier: Life Technologies) and allowed to adhere to the plastic overnight. Densities used for plating were 1500 cells per well in a total volume of 200 μl medium. After cell adhesion to the plates, medium was changed and drugs and/or solvents were added to a final volume of 200 μl. Following four days of incubation, medium was replaced by 200 μl fresh medium and cell density and viability was assessed using an MTT-based assay. To each well, 25 μl […] solution was added and the cells were further incubated for 2 hours at 37° C. The medium was then carefully aspirated and the blue MTT-formazan product was solubilized by addition of 25 μl glycine buffer followed by 100 μl of DMSO. […] Within an experiment, the results for each experimental condition are the mean of 3 replicate wells. For initial screening purposes, compounds were tested at a single fixed concentration of 10^−6 M. For active compounds, the experiments were repeated to establish full concentration-response curves. For each experiment, controls (containing no drug) and a blank incubation (containing no cells or drugs) were run in parallel. The blank value was subtracted from all control and sample values. For each sample, the mean value for cell growth (in absorbance units) was expressed as a percentage of the mean value for cell growth of the control. […] Herein the effects of test compounds are expressed as pIC50 (the negative log value of the IC50-value)(see Table F-3).

[3] = Solubility at different pH's, chemiluminescent nitrogen detector (C.3.b); type: physicochemical; details: for solubility: pH 2.3, aqueous buffer, read-out: Solubility C.3.b. pH = 2.3 mg/ml
Excerpt: In a second method the solubility of a compound at different pH's can be measured with the use of a chemiluminescent nitrogen detector (see example C.3.b).
The solubility of a compound, at different pH's, can also be measured with the use of a cherniluminescent nitrogen detector (see Table F-3).

[4] = Kinetic solubility in aqueous media (nephelometer, C.3.a); type: physicochemical; details: aqueous buffer, kinetic from dmso stock; score; phosphate citrate buffer pH 7.4, turbidity
Method: The solubility of a compound measures the ability of a compound to stay in solution. In a first method the ability of a compound to stay in aqueous solution upon dilution (see example C.3.a) is measured. DMSO-stock solutions are diluted with a single aqueous buffer solvent in 3 consecutive steps. For every dilution turbidity is measured with a nephelometer.
In the first dilution step, 10 μl of a concentrated stock-solution of the active compound, solubilized in DMSO (5 mM), was added to 100 μl phosphate citrate buffer pH 7.4 and mixed. In the second dilution step, an aliquot (20 μl) of the first dilution step was further dispensed in 100 μl phosphate citrate buffer pH 7.4 and mixed. Finally, in the third dilution step, a sample (20 μl) of the second dilution step was further diluted in 100 μl phosphate citrate buffer pH 7.4 and mixed. All dilutions were performed in 96-well plates. Immediately after the last dilution step the turbidity of the three consecutive dilution steps were measured with a nephelometer. Dilution was done in triplicate for each compound to exclude occasional errors. Based on the turbidity measurements a ranking is performed into 3 classes. Compounds with high solubility obtained a score of 3 and for this compounds the first dilution is clear. Compounds with medium solubility obtained a score of 2. For these compounds the first dilution is unclear and the second dilution is clear.

| Structure (SMILES) | Enzymatic activity pIC50 C.1. [1] | IC50 [2] | melting point | solubility [3] | solubility [4] | Cellular activity pIC50 C.2. [2] | Solubility C.3.b. pH = 2.3 mg/ml [3] |
| --- | --- | --- | --- | --- | --- | --- | --- |
| CC(=O)OCC(/C=C/c1ccccc1)N1CCN(c2ncc(C(=O)NO)cn2)CC1 (stereo not drawn) [Compound 9] | 9.4 | 25.1 nM | 161 °C |  |  |  |  |
| O=C(NO)c1cnc(N2CCN(C(/C=C/c3ccccc3)C(=O)NCCO)CC2)nc1 (stereo not drawn) [Compound 19] | 8.4 | 501 nM |  | 2600 µg/mL (≈ 6.1 mM) |  |  |  |
| COCC(/C=C/c1ccccc1)N1CCN(c2ncc(C(=O)NO)cn2)CC1 (stereo not drawn) [Compound 11] | 9.4 | 10 nM | 212 °C | 3100 µg/mL (≈ 8.08 mM) |  |  |  |
| O=C(NO)c1ccc(N2CCN(C(/C=C/c3ccc(F)cc3)CO)CC2)nc1 (stereo not drawn) [Compound 31] | 8.5 | 39.8 nM | 145 °C |  |  |  |  |
| CCOCC(/C=C/c1ccccc1)N1CCN(c2ncc(C(=O)NO)cn2)CC1 (stereo not drawn) [Compound 24] | 8.8 | 31.6 nM |  | 4000 µg/mL (≈ 10.1 mM) |  |  |  |
| O=C(NO)c1cnc(N2CCN(C(/C=C/c3ccccc3)Cn3ccnc3)CC2)nc1 (stereo not drawn) [Compound 23] | 8.0 | 251 nM |  |  |  |  |  |
| CCCCN(C)C(=O)C(C)(/C=C/c1ccc(F)cc1)N1CCN(c2ncc(C(=O)NO)cn2)CC1 (stereo not drawn) [Compound 20] | 7.7 | 50.1 nM |  |  |  |  |  |
| CN(C)CCNC(=O)C(/C=C/c1ccccc1)N1CCN(c2ncc(C(=O)NO)cn2)CC1 (stereo not drawn) [Compound 18] | 8.5 | 100 nM |  | 3600 µg/mL (≈ 7.94 mM) |  |  |  |
| O=C(NO)c1cnc(N2CCN(C(/C=C/c3ccc(C(F)(F)F)cc3)CO)CC2)nc1 (stereo not drawn) [Compound 6] | 7.6 | 39.8 nM |  |  | > 455 µM |  |  |
| O=C(NO)c1cnc(N2CCN([C@@H](/C=C/c3ccccc3)CO)CC2)nc1 (single isomer, unassigned) [Compound 25] | 7.9 |  |  | 3400 µg/mL (≈ 9.2 mM) |  | 7.6 |  |
| CNC(=O)C(/C=C/c1ccccc1)N1CCN(c2ncc(C(=O)NO)cn2)CC1 (stereo not drawn) [Compound 16] | 7.4 | 79.4 nM |  | 2800 µg/mL (≈ 7.06 mM) |  |  |  |
| O=C(NO)c1cnc(N2CCN([C@H](/C=C/c3ccc(F)cc3)CO)CC2)nc1 (single isomer, unassigned) [Compound 34] |  |  |  |  |  | 7.9 |  |
| COc1ccc(/C=C/C(CO)N2CCN(c3ncc(C(=O)NO)cn3)CC2)cc1 (stereo not drawn) [Compound 3] | 8.1 | 31.6 nM |  |  | > 455 µM |  |  |
| COCC(/C=C/c1ccc(F)cc1)N1CCN(c2ncc(C(=O)NO)cn2)CC1 (stereo not drawn) [Compound 32] | >9 | < 31.6 nM |  |  |  |  |  |
| CN(C)C(=O)C(C)(/C=C/c1ccc(F)cc1)N1CCN(c2ncc(C(=O)NO)cn2)CC1 (stereo not drawn) [Compound 10] | 8.4 | 31.6 nM |  | 3000 µg/mL (≈ 6.78 mM) |  |  |  |
| O=C(NO)c1cnc(N2CCN(C(/C=C/c3ccccc3)C(=O)N3CCOCC3)CC2)nc1 (stereo not drawn) [Compound 17] | 8.8 | 200 nM |  | 2200 µg/mL (≈ 4.86 mM) |  |  |  |
| CN(C)C(=O)C(C)(/C=C/c1ccc(F)cc1)N1CCN(c2ncc(C(=O)NO)cn2)CC1 (stereo not drawn) (hydrate or solvate) [Compound 10] |  |  | 146 °C |  |  |  |  |

| Structure (SMILES) | Enzymatic activity pIC50 C.1. [1] | IC50 [2] | melting point | solubility [3] | solubility [4] | Cellular activity pIC50 C.2. [2] | Solubility C.3.b. pH = 2.3 mg/ml [3] |
| --- | --- | --- | --- | --- | --- | --- | --- |
| O=C(NO)c1cnc(N2CCN(C(/C=C/c3ccc(Cl)cc3)CN3CCOCC3)CC2)nc1 (stereo not drawn) (hydrate or solvate) [Compound 2] |  |  | 135 °C |  |  |  |  |
| O=C(NO)c1cnc(N2CCN([C@H](/C=C/c3ccc(F)cc3)CO)CC2)nc1 (single isomer, unassigned) [Compound 28] |  |  |  |  |  | 7.5 |  |
| O=C(NO)c1cnc(N2CCN(C(/C=C/c3ccc(-c4ccccc4)cc3)CO)CC2)nc1 (stereo not drawn) [Compound 5] | 7.9 | 39.8 nM |  |  | < 76 µM |  |  |
| O=C(NO)c1cnc(N2CCN(C(/C=C/c3ccc(Cl)cc3)CN3CCOCC3)CC2)nc1 (stereo not drawn) [Compound 2] | 7.4 | 316 nM |  |  | > 455 µM |  |  |
| O=C(NO)c1cnc(N2CCN([C@@H](/C=C/c3ccccc3)CO)CC2)nc1 (single isomer, unassigned) [Compound 26] | 8.3 |  |  |  |  | 7.2 | 3.5 mg/ml |
| Cc1ccc(/C=C/C(CO)N2CCN(c3ncc(C(=O)NO)cn3)CC2)cc1 (stereo not drawn) [Compound 12] | 9.0 | 31.6 nM |  | 2100 µg/mL (≈ 5.48 mM) |  |  |  |
| O=C(NO)c1cnc(N2CCN([C@@H](/C=C/c3ccc(F)cc3)CO)CC2)nc1 (single isomer, unassigned) [Compound 33] |  |  |  |  |  | 8.2 |  |
| CC(/C=C/c1ccccc1)N1CCN(c2ncc(C(=O)NO)cn2)CC1 (stereo not drawn) [Compound 35] | 9.6 |  |  |  |  | 7.8 |  |
| O=C(NO)c1cnc(N2CCN(C(/C=C/c3ccc(F)cc3)CO)CC2)nc1 (stereo not drawn) [Compound 8] |  | 12.6 nM |  | 2900 µg/mL (≈ 7.49 mM) |  |  |  |
| CCN(C)C(=O)C(C)(/C=C/c1ccc(F)cc1)N1CCN(c2ncc(C(=O)NO)cn2)CC1 (stereo not drawn) [Compound 14] | 8.5 | 39.8 nM |  | 2800 µg/mL (≈ 6.13 mM) |  |  |  |
| O=C(NO)c1cnc(N2CCN([C@@H](/C=C/c3ccc(F)cc3)CO)CC2)nc1 (single isomer, unassigned) [Compound 27] |  |  |  |  |  | 7.5 |  |
| CC(/C=C/c1ccccc1)N1CCN(c2ncc(C(=O)NO)cn2)CC1 (stereo not drawn) [Compound 7] | >9 | 31.6 nM | 161 °C | 2000 µg/mL (≈ 5.66 mM) |  |  |  |
| CC(/C=C/c1ccccc1)(C(=O)N1CCOCC1)N1CCN(c2ncc(C(=O)NO)cn2)CC1 (stereo not drawn) [Compound 13] | 8.8 | 100 nM |  | 3700 µg/mL (≈ 7.93 mM) |  |  |  |
| CN1CCN(CC(/C=C/c2ccccc2)N2CCN(c3ncc(C(=O)NO)cn3)CC2)CC1 (stereo not drawn) [Compound 22] | 7.9 | 158 nM |  | 4200 µg/mL (≈ 9.3 mM) |  |  |  |
| O=C(NO)c1cnc(N2CCN(C(/C=C/c3ccccc3)C(=O)NC3CC3)CC2)nc1 (stereo not drawn) [Compound 15] | 7.6 | 100 nM |  |  | > 455 µM |  |  |
| O=C(NO)c1cnc(N2CCN(C(/C=C/c3ccccc3)CN3CCOCC3)CC2)nc1 (stereo not drawn) [Compound 21] | 7.9 | 158 nM |  | 2100 µg/mL (≈ 4.79 mM) |  |  |  |

— US7947830B2, “Substituted propenyl piperazine derivatives as novel inhibitors of histone deacetylase” (Janssen Pharmaceutica N.V., priority 2004, dated 2011)
